In patent US20250388593A1 (MITSUBISHI TANABE PHARMA CORPORATION, priority 2023, published 2025):

Test: Stability against racemization (chiral HPLC)
Type: physicochemical
Description: Test Example 7: Stability Against Racemization Each test sample (1 mg) was dissolved in CH3CN (1 mL), and 0.1 M N-methylmorpholine aqueous solution (adjusted to pH 7.4 with 1N HCl) (1 mL) was added to dilute the solution twofold, thereby preparing a solution with a final concentration of 0.5 mg/mL. The sample was divided into nine portions of 150 μL each, and each portion was placed in a sampler set to 37° C. The enantiomers in the sample were quantified at 0, 1, 3, 6, 24, 48, 72, and 167 hours under the following HPLC conditions, and the enantiomeric excess (ee) at each time point was calculated.
As test samples, Example Compound 211-1 was used as an example, while (S)-thalidomide represented by the following formula
• Equipment: ACQUITY UPLC H-Class Waters • Column: […] IE-3 (3 μm, 4.6×150 mm) Daicel Corporation • Flow rate: 0.5 mL/min • Column temperature: 25° C.
• Mobile phase: 100% MeOH • Injection volume: 0.7 μL • Detection wavelength: 217.0 nm
• Mobile phase: 100% MeOH • Injection volume: 1.2 μL • Detection wavelength: 221.0 nm
• Mobile phase: EtOH/CH3CN=90/10 • Injection volume: 1.5 μL • Detection wavelength: 221.0 nm

[1] = 0 h, pH 7.4, 37° C., CH3CN/0.1 M N-methylmorpholine aqueous solution

| Structure (SMILES) | ee Normalized to 100 at 0 min (0 h, pH 7.4, 37° C.) | ee [1] | ee (24 h, pH 7.4, 37° C.) | ee Normalized to 100 at 0 min (24 h, pH 7.4, 37° C.) | ee (48 h, pH 7.4, 37° C.) | ee Normalized to 100 at 0 min (48 h, pH 7.4, 37° C.) | ee (72 h, pH 7.4, 37° C.) | ee Normalized to 100 at 0 min (72 h, pH 7.4, 37° C.) | ee (167 h, pH 7.4, 37° C.) | ee Normalized to 100 at 0 min (167 h, pH 7.4, 37° C.) | ee (Initial) |
| --- | --- | --- | --- | --- | --- | --- | --- | --- | --- | --- | --- |
| Cn1c(=O)n([C@@H]2CCCC(=O)NC2=O)c2cccc(I)c21 (stereo in doubt) [Example 211-1, 3-(4-Iodo-3-methyl-2-oxobenzimidazol-1-yl) azepane-2,7-dione] | 100 | 99.43 | 87.71 | 88.21 | 77.71 | 78.16 | 70.06 | 70.46 | 41.83 | 42.07 | 99.44 |
| O=C1CC[C@H](N2C(=O)c3ccccc3C2=O)C(=O)N1 [(S) Thalidomide, (S)-thalidomide] | 100 | 92.11 | 73.31 | 79.59 | 58.25 | 63.24 | 46.27 | 50.23 | 18.57 | 20.16 | 92.16 |
| Cn1c(=O)n([C@@H]2CCC(=O)NC2=O)c2cccc(I)c21 [Compound A′] | 100 | 96.08 | 77.77 | 80.94 | 62.84 | 65.4 | 50.69 | 52.76 | 21.53 | 22.41 | 95.39 |
